Patent US20110135603A1, “INHIBITORS OF PHOSPHATIDYLINOSITOL 3-KINASE” (VERTEX PHARMACEUTICALS INCORPORATED, priority 2008, published 2011)
Read-outs that look alike come from different tables or passages of the source.

Columns and labels:
PI3Kγ = PI3Kγ (Homo sapiens, UniProt P48736); experiment: PI3K Inhibition Assay (33P-ATP, PI(4,5)P2 substrate), PI3Kγ isoform; assay type: biochemical; details: 2 nM final enzyme, 3 μM ATP, 30 μM PI(4,5)P2; competitive tight binding Ki fit
Protocol: (§1) Using a Biomek FX from Beckman Coulter, 1.5 μL of each of ten 2.5-fold serial dilutions of a compound of the invention in 100% DMSO was added to an individual well (hereafter, “test well”) in a 96 well polystyrene plate [Corning, Costar Item No. 3697]. One test well also contained 1.5 μL of DMSO with no compound. […] Using a Titertek Multidrop, 50 μL of Reaction Mix [100 mM HEPES pH 7.5, 50 mM NaCl, 10 mM DTT, 0.2 mg/mL BSA, 60 μM phosphatidylinositol(4,5)bisphosphate diCl6 (PI(4,5)P2; Avanti Polar Lipids, Cat. No. 840046P) and PI3K isoform of interest (see Table 3 for isoform concentrations)] was added to each well. To initiate the reaction, 50 μL of ATP Mix [20 mM MgCl2, 6 μM ATP (100 μCi/μmole ^33P-ATP)] was added each well, followed by incubating the wells for 30 min. at 25° C. Final concentrations in each well were 50 mM HEPES 7.5, 10 mM MgCl2, 25 mM NaCl, 5 mM DTT, 0.1 mg/mL BSA, 30 μM PI(4,5)P2, 3 μM ATP, and the PI3K isoform of interest (see Table 3). Final compound concentrations in each well ranged from 10 μM to 1 nM.
(§2) After incubation, the reactions in each well were quenched by addition of 50 μL of stop solution [30% TCA/Water, 10 mM ATP]. Each quenched reaction mixture was then transferred to a 96 well glass fiber filter plate [Corning, Costar Item No. 3511]. The plate was vacuum-filtered and washed three times with 150 μL of 5% TCA/water in a modified Bio-Tek Instruments ELX-405 Auto Plate Washer. 50 μL of scintillation fluid was added to each well and the plate read on a Perkin-Elmer TopCount™ NXT liquid scintillation counter to obtain ^33P-counts representing inhibition values.
(§3) The value for the background well was subtracted from the value obtained for each test well and the data were fit to the competitive tight binding Ki equation described by Morrison and Stone, Comments Mol. Cell. Biophys. 2: 347-368, 1985.

PI3Kα = PI3Kα (Homo sapiens, UniProt P42336); experiment: PI3K Inhibition Assay (33P-ATP, PI(4,5)P2 substrate), PI3Kα isoform; assay type: biochemical; details: 2 nM final enzyme, 3 μM ATP, 30 μM PI(4,5)P2; competitive tight binding Ki fit
Chain of PI3Kα (P42336 whole entry, species assumed, canonical isoform): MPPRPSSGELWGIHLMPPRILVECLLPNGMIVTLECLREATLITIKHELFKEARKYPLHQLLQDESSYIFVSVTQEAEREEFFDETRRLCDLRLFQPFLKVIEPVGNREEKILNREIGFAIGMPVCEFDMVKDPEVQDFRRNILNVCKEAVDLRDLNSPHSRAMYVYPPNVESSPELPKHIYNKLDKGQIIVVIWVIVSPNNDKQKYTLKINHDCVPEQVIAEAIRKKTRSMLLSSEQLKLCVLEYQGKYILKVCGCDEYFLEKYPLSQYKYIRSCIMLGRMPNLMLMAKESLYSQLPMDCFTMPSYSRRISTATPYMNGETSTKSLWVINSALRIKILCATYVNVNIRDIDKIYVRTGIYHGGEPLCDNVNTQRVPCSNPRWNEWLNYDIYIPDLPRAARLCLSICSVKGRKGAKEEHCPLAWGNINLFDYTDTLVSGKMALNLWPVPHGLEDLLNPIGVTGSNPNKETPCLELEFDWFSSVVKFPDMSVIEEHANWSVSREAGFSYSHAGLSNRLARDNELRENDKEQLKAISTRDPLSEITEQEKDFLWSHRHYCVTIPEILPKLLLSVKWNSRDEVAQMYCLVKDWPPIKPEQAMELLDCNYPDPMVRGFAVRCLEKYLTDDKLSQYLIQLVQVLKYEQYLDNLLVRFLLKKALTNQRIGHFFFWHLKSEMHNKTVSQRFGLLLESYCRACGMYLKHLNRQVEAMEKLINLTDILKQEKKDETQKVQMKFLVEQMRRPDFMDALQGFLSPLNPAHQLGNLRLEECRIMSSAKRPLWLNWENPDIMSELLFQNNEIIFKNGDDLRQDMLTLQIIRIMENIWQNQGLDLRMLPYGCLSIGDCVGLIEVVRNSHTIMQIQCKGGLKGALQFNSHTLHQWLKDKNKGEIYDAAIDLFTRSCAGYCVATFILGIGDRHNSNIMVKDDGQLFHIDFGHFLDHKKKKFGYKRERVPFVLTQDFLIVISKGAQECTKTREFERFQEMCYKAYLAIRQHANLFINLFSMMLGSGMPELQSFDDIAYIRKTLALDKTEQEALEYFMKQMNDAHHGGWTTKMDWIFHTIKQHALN
Chain of PI3Kα (P27986 whole entry partner, species assumed, canonical isoform): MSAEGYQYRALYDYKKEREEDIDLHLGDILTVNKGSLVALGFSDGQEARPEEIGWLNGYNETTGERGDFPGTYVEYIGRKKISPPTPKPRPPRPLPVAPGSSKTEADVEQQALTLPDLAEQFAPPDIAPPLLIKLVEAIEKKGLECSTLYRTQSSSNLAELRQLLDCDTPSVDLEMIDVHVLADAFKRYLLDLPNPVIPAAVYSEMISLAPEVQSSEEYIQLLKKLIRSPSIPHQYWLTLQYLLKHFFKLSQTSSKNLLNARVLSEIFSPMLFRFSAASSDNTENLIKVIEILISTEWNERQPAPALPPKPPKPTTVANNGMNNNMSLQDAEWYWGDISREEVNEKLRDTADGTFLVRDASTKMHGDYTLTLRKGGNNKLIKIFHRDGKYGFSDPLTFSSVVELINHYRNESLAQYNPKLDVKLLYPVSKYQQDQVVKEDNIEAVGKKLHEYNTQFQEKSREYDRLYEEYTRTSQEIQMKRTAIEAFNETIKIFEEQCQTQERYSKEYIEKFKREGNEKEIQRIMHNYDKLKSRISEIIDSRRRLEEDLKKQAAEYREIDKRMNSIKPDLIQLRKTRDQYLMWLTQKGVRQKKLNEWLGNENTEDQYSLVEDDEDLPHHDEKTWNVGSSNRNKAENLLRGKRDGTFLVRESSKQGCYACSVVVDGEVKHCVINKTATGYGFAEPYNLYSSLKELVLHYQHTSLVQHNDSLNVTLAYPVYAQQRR
Protocol: as §1, §2, §3

[1] = Evaluation of Brain/Plasma Concentrations; assay type: in vivo; details: Sprague-Dawley rats; for concentration at 2 h: 10 mg/kg oral intragastric in 0.5% MC, two hours after administration; for Kp at 2 h: 10 mg/kg oral, two hours, average brain/plasma ratio based on data obtained for each animal
Protocol: Selected compounds of the invention were evaluated for their ability to cross the blood-brain barrier. Accordingly, a compound of the invention was administered to Sprague-Dawley rats [10 mg/kg as a 1 mg/mL 0.5% MC solution] via oral intragastric delivery. Two hours after compound administration, the rats were anaesthetized by intramuscular administration of a 2 mL/kg Ketamine/Rompun/Acepromazine cocktail and placed onto necropsy table. The abdominal cavity was then opened with a V-cut and 300 microliters of blood was drawn directly from left ventricle for plasma concentration analysis. The blood sample was stored on ice in a 1.5 mL Eppendorf tube (containing K2EDTA) and subsequently centrifuged for 2 minutes at 2000 rpm. After centrifugation, 110 microliters of plasma was transferred to a fresh tube and stored at −70° C. until analysis. The rat was perfused with cold saline (containing 50 IU of heparin) at 20 mL/min from an infusion pump through the left ventricle of the heart. Immediately after starting the perfusion, a small cut in the right atria was made so that heparinized saline would flow through the body. The perfusion was continued until the liver appeared pale in color (about 60 mL of cold saline). The brain was removed and placed on ice, blotted dry, weighed, placed in a tube, frozen with liquid nitrogen, and stored at −70° C. until further analysis was performed.
In order to determine compound concentration in the plasma, the blood sample was prepared by protein precipitation with addition of acetonitrile at a ratio of 1:4. After vortexing and centrifugation, the supernatant was analyzed by high performance liquid chromatography-tandem mass spectrometry in positive Atmospheric Pressure Chemical Ionization (APCI) ionization mode. The analysis was done using reverse-phase high performance liquid chromatography with a 5.0 μm Xterra C18 analytical column (2.1×50 mm). Mobile phase was consists of a mixture of 10 mM ammonium acetate and acetonitrile running in a 1.5 minutes linear gradient. Aliquots of the matrix were spiked with known concentrations of the compound of interest and an internal standard. Study samples were spiked with the internal standard alone. The calibration curve generally contains final concentrations in the control matrix of 1 to 5000 ng/mL. The calibration curve was analyzed and the instrument response (area counts for compound of interest/Area Counts for internal Standard) are used to generate a calibration curve. The instrument response for study samples were compared to the calibration curve and the concentration back-calculated from the curve.
In order to determine compound concentration in the brain, the brain sample was thawed to RT, and a 0.5 weight equivalent of water was added to the sample. The sample was then completely homogenized. Two to four volumes of acetonitrile were added to the brain homogenate, the homogenate mixed and the sample centrifuged to remove protein. Similar to the method used to obtain blood concentrations, an aliquot of the sample homogenate supernatant was injected onto an LC/MS/MS running a gradient suitable for detecting the compound of interest. The instrument response was compared to the instrument response from calibration samples of brain homogenate spiked with known concentrations of compound in order to determine the brain concentration.

[2] = test system: experimental autoimmune encephalomyelitis (EAE); experiment: Experimental autoimmune encephalomyelitis (EAE) mouse model of multiple sclerosis; assay type: in vivo; details: prophylactic administration, contrasted with animals administered vehicle alone
Text: See, for example, Keszthelyi et al., Neurology, 1996, 47:1053-1059.

[3] = based on a density of rat plasma of 1.0 g/mL, read-out: Plasma Conc.
[4] = rat, brain, average of two or three animals, read-out: Brain Conc.

Chain of PI3Kγ (P48736 whole entry, species assumed, canonical isoform): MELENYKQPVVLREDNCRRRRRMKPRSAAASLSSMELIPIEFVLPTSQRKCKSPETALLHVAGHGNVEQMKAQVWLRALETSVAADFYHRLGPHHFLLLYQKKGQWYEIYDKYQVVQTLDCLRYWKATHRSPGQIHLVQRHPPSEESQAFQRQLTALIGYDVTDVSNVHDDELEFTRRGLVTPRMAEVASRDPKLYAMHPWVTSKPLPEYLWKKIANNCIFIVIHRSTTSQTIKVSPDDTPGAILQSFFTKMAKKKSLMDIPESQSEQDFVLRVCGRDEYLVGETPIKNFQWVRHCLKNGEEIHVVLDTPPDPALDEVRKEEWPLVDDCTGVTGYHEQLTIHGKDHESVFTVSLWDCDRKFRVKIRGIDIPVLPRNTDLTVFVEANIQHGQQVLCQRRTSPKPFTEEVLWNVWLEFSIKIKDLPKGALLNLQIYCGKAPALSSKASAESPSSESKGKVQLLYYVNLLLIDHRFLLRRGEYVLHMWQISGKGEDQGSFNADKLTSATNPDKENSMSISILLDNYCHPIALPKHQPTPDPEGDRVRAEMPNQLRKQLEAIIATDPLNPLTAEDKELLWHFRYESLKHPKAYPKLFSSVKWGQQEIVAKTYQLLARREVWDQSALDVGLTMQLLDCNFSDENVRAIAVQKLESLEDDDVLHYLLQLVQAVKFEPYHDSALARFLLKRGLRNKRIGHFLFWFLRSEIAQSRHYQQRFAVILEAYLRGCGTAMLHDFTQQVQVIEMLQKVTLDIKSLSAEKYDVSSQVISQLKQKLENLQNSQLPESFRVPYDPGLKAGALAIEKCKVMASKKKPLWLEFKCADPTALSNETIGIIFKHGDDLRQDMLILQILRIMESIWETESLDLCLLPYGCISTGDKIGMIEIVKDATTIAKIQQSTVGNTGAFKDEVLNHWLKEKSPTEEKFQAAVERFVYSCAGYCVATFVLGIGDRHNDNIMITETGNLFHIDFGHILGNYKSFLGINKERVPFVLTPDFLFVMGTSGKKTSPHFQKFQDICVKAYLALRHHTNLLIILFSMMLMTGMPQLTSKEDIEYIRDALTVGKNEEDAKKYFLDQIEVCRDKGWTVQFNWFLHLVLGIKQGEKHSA

Row | Structure (SMILES) | Ki (PI3Kγ) [nM] | Ki (PI3Kα) [nM] | concentration at 2 h [1, 3] [ng/mL] | concentration at 2 h [1, 4] [ng/g] | Kp at 2 h ([1]; rat) | Effect on disease in EAE [2]
1 | CCCOCCNC(=O)Nc1nc2ccc(-c3cncc(C(F)(F)F)c3)nc2s1 [Compound 1, 1-(5-(5-(trifluoromethyl)pyridin-3-yl)thiazolo[5,4-b]pyridin-2-yl)-3-(2-propoxyethyl)urea] | 10 to 100 | 100 to 4000 | 197 | 157 | 0.8 | –
2 | COCCCNC(=O)Nc1nc2ccc(-c3cncc(C(F)(F)F)c3)nc2s1 [Compound 10] | ≤ 10 | 10 to 100 | 985 | 662 | 0.7 | disease suppression
3 | CCCOCCCNC(=O)Nc1nc2ccc(-c3cncc(C(F)(F)F)c3)nc2s1 [Compound 2] | 10 to 100 | 100 to 4000 | – | – | – | –
4 | CC(C)OCCCNC(=O)Nc1nc2ccc(-c3cncc(C(F)(F)F)c3)cc2s1 [Compound 3, 1-(6-(5-(trifluoromethyl)pyridin-3-yl)benzo[d]thiazol-2-yl)-3-(3-isopropoxypropyl)urea] | 10 to 100 | 100 to 4000 | – | – | – | –
5 | CCOCCCNC(=O)Nc1nc2ccc(-c3cncc(C(F)(F)F)c3)nc2s1 [Compound 11] | ≤ 10 | 100 to 4000 | 210 | 55 | 0.3 | –
6 | CCNC(=O)Nc1nc2ccc(-c3cncc(C(F)(F)F)c3)nc2s1 [Compound 13] | ≤ 10 | 10 to 100 | – | – | – | –
